Results reported in PubChem BioAssay (NCI).
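Results reflect a 48-hour exposure of cells in 96-well plates to compound at five concentrations. TGI is the concentration that stops growth completely.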

Legend:
Assay in all cases: NCI-60 cell line screen, 48 h
SNB-19 CNS = tested on: SNB-19 CNS
MDA-N = tested on: MDA-N
OVCAR-4 ovarian = tested on: OVCAR-4 ovarian
OVCAR-5 ovarian = tested on: OVCAR-5 ovarian
SF-268 CNS = tested on: SF-268 CNS
RXF 393 renal = tested on: RXF 393 renal
EKVX NSCLC = tested on: EKVX NSCLC
MCF7 breast = tested on: MCF7 breast
KM12 colon = tested on: KM12 colon
CAKI-1 renal = tested on: CAKI-1 renal
OVCAR-8 ovarian = tested on: OVCAR-8 ovarian
MOLT-4 leukemia = tested on: MOLT-4 leukemia
SF-295 CNS = tested on: SF-295 CNS
SK-OV-3 ovarian = tested on: SK-OV-3 ovarian
SR leukemia = tested on: SR leukemia
SW-620 colon = tested on: SW-620 colon
HS 578T breast = tested on: HS 578T breast
SN12C renal = tested on: SN12C renal
CCRF-CEM leukemia = tested on: CCRF-CEM leukemia
NCI-H522 lung = tested on: NCI-H522 lung
HOP-92 NSCLC = tested on: HOP-92 NSCLC
A549 NSCLC = tested on: A549 NSCLC
MALME-3M melanoma = tested on: MALME-3M melanoma
TK-10 renal = tested on: TK-10 renal
NCI/ADR-RES ovarian = tested on: NCI/ADR-RES ovarian
NCI-H226 lung = tested on: NCI-H226 lung
UACC-257 melanoma = tested on: UACC-257 melanoma
K-562 leukemia = tested on: K-562 leukemia
HCT-116 colon = tested on: HCT-116 colon
786-0 renal = tested on: 786-0 renal
OVCAR-3 ovarian = tested on: OVCAR-3 ovarian
MDA-MB-435 = tested on: MDA-MB-435
M14 melanoma = tested on: M14 melanoma
UO-31 renal = tested on: UO-31 renal
NCI-H460 lung = tested on: NCI-H460 lung
SK-MEL-5 melanoma = tested on: SK-MEL-5 melanoma
IGROV1 ovarian = tested on: IGROV1 ovarian
NCI-H23 lung = tested on: NCI-H23 lung
SNB-75 CNS = tested on: SNB-75 CNS
A498 renal = tested on: A498 renal
HL-60(TB) leukemia = tested on: HL-60(TB) leukemia
LOX IMVI melanoma = tested on: LOX IMVI melanoma
DU-145 prostate = tested on: DU-145 prostate
ACHN renal = tested on: ACHN renal
HT29 colon = tested on: HT29 colon
HCC-2998 colon = tested on: HCC-2998 colon
SK-MEL-28 melanoma = tested on: SK-MEL-28 melanoma
RPMI-8226 leukemia = tested on: RPMI-8226 leukemia
PC-3 prostate = tested on: PC-3 prostate
COLO 205 colon = tested on: COLO 205 colon
MDA-MB-231 breast = tested on: MDA-MB-231 breast
U251 CNS = tested on: U251 CNS
SK-MEL-2 melanoma = tested on: SK-MEL-2 melanoma
BT-549 breast = tested on: BT-549 breast
T-47D breast = tested on: T-47D breast
UACC-62 melanoma = tested on: UACC-62 melanoma
HOP-62 NSCLC = tested on: HOP-62 NSCLC
HCT-15 colon = tested on: HCT-15 colon
SF-539 CNS = tested on: SF-539 CNS

Measured: TGI

CC(NC(=O)OC(C)(C)C)C(=O)NC1CCCC1 (configuration not stated)
not listed: MDA-MB-231 breast | U251 CNS | SK-MEL-2 melanoma | BT-549 breast | T-47D breast | UACC-62 melanoma | HOP-62 NSCLC | HCT-15 colon | SF-539 CNS
> 100 µM: all other assays above

O=C(CCC1CCCCC1)NCc1ccc(C(=O)O)cc1
not listed: HS 578T breast | HL-60(TB) leukemia
> 100 µM: all other assays above
